Data set [1] concerns L. donovani intracellular amastigotes infecting THP-1 macrophages. Put plainly: GSK intramacrophage L. donovani assay (LD AMMAC, inMac; Assay Conditions C). The data set is classed as cell-based. The conditions noted are these: Leishmania donovani. How it is done:
Assay Conditions C: The intramacrophage Leishmania donovani activity assay was performed as described in Antimicrob Agents Chemother (2013) 57(7):2913-22.
(§1) The intramacrophage Leishmania donovani activity assay (LD AMMAC) at GlaxoSmithKline was performed as described.
(§2) Given the literature precedents described above and the apparent narrow tolerance for R^3 substitutions observed in the primary screen compounds, a thorough and methodical assessment was undertaken of tolerated groups at the three points of diversity (R^1/R^2/R^3) for the core. At this stage of the project, all analogues were assessed using a battery of assays performed in-house at GlaxoSmithKline. For antileishmanial activity, GSK's inMac assay was utilized. This assay provides two readouts of compound potency: average number of intracellular amastigotes per infected cell (AMMAC) EC50, percentage of infected cells per well (INFCELL) EC50, as well as a toxicity output derived from the number of host cells (MAC EC50). In addition, compounds were assessed for toxicity against HepG2 cells (HEPG2 EC50). Here, AMMAC EC50 values were focused on for relative potency assessments. […] It should be noted that for all compounds assessed in this project, the measured toxicity against THP-1 macrophages either equaled or exceeded that of HepG2 hepatocytes, therefore the MAC SI is used here as the more conservative estimate of therapeutic index.

Data set [2] is described as follows: GSK inMac assay, host cell toxicity readout (LD MAC). Type of data set: cell-based, human. The settings on record: human. Here is the method:
as §1, §2

[3] abbreviates: THP-1 cells, values marked c, read-out: L. donovani amastigotes EC50 (THP-1 cells).
The mark [4] stands for this setting: footnote c, read-out: THP-1 Host Cell CC50.
Where [5] appears, read: values marked c: THP-1 cells, read-out: L. donovani amastigotes EC50 (μM, THP-1 or B10R cells).

Like-named read-outs stand apart in the source and are kept apart here. Bounds are passed on as bounds.

With `CC(C)Cc1n[nH]c2c1C(c1ccc(F)cc1)N(c1ccc(C#N)cc1)C2=O` (stereo not drawn) [BUCMD00807], in data set [1] (setting [3]), the EC50 – broadly, the concentration at which the effect is half-maximal – came out at 12.6 µM. Also, the 50% cytotoxic concentration (CC50) (in general, the concentration giving 50% cytotoxicity) in data set [2] (setting [4]) amounted to 25.1 µM.
The like results for `COc1ccc(N2C(=O)c3[nH]nc(CC(C)C)c3C2c2ccc(F)cc2)cn1` (stereo not drawn) [BUCMD00808] were, in that order, 10 µM and over 50 µM.
Turning to `CCn1nc(CC(C)C)c2c1C(=O)N(c1ccc(OC)cc1)C2c1ccc(F)cc1` (stereo not drawn) [BUCMD00809], the EC50 in data set [1] (setting [3]) was determined as 4 µM. The CC50 in data set [2] (setting [4]) is 39.8 µM.
The like results for `CCn1nc2c(c1CC(C)C)C(c1ccc(F)cc1)N(c1ccc(OC)cc1)C2=O` (stereo not drawn) [BUCMD00810] were, in that order, 20 µM and over 50 µM.
The like results for `COc1ccc(N2C(=O)c3[nH]nc(-c4ccc(OCc5ccccc5)cc4)c3C2c2ccc(F)cc2)cc1` (stereo not drawn) [BUCMD00811] were, in that order, 10 µM and 15.8 µM.
With `COc1ccc(N2C(=O)c3[nH]nc(CC4CCCCC4)c3C2c2ccc(F)cc2)cc1` (stereo not drawn) [BUCMD00812], the EC50 in data set [1] (setting [3]) was 3.2 µM. In data set [2] (setting [4]), the CC50 stood at 20 µM.
As to `COCn1nc(CC(C)C)c2c1C(=O)N(c1ccc(OC)cc1)C2c1ccc(F)cc1` (stereo not drawn) [BUCMD00813], in data set [1] (setting [3]), the EC50 was found to be 12.6 µM. Also, the CC50 in data set [2] (setting [4]) stood at 31.6 µM.
Take `COCn1nc2c(c1CC(C)C)C(c1ccc(F)cc1)N(c1ccc(OC)cc1)C2=O` (stereo not drawn) [BUCMD00814]: in data set [1] (setting [3]), the EC50 was determined as 12.6 µM. For the same compound, the half-maximal cytotoxic concentration (CC50) in data set [2] (setting [4]) was over 50 µM.
As for `CC(C)Cc1n[nH]c2c1C(c1ccc(F)cc1)N(c1ccc(-n3ccnc3)cc1)C2=O` (stereo not drawn) [BUCMD00815], the EC50 in data set [1] (setting [3]) came to 2.5 µM. Besides, the CC50 in data set [2] (setting [4]) was over 50 µM.
For `CC(C)Cc1n[nH]c2c1C(c1ccc(F)cc1)N(c1ccc(C(C)(C)C)cc1)C2=O` (stereo not drawn) [BUCMD00816] the same measures were 10 µM and over 50 µM.
Take `CC(C)Cc1n[nH]c2c1C(c1ccc(F)cc1)N(C(CO)CO)C2=O` (stereo not drawn) [BUCMD00817]: in data set [1] (setting [3]), the EC50 is over 50 µM. Besides, the CC50 in data set [2] (setting [4]) was over 50 µM.
Consider `COc1ccc(N2C(=O)c3[nH]nc(CC(C)C)c3C2c2cccc(C(F)(F)F)c2)cc1` (stereo not drawn) [CMLD007432], for which the EC50 in data set [1] (setting [3]) is 6.3 µM. Also, the CC50 in data set [2] (setting [4]) stood at 15.9 µM.
As to `CC(C)Cc1nn(-c2ccc(OC(F)(F)F)cc2)c2c1C(c1ccccc1)NC2=O` (stereo not drawn) [CMLD009657], in data set [1] (setting [5]), the half-maximal effective concentration (EC50) was found to be 12.6 µM. In data set [2] (host THP-1 cells), the CC50 was at least 50.1 µM.
Consider `CC(C)Cc1n[nH]c2c1C(c1ccc(F)cc1)N(Cc1ccc(C(F)(F)F)cn1)C2=O` (stereo not drawn) [CMLD010848], for which the EC50 in data set [1] (setting [3]) came out at 39.8 µM. Besides, in data set [2] (setting [4]), the cytotoxic concentration (CC50) is over 50 µM.
For the compound `COc1ccc(N2C(=O)c3[nH]nc(CCc4ccccc4)c3C2c2ccc(F)cc2)cc1` (stereo not drawn) [CMLD010849], the concentration for a half-maximal effect (EC50) in data set [1] (setting [3]) came to 6.3 µM. In addition, the cytotoxic concentration (CC50) in data set [2] (setting [4]) was 25.1 µM.
As for `COc1cccc(N2C(=O)c3[nH]nc(CC(C)C)c3C2c2ccsc2)c1` (stereo not drawn) [CMLD010880], the half-maximal effective concentration (EC50) in data set [1] (setting [3]) was 20 µM. Besides, the half-maximal cytotoxic concentration (CC50) in data set [2] (setting [4]) was 39.8 µM.
For the compound `COc1cccc(N2C(=O)c3[nH]nc(CC(C)C)c3C2c2ccccc2Cl)c1` (stereo not drawn) [CMLD010881], the EC50 in data set [1] (setting [3]) stood at 7.9 µM. The 50% cytotoxic concentration (CC50) in data set [2] (setting [4]) is 15.8 µM.
With `COc1ccc(N2C(=O)c3[nH]nc(CC(C)C)c3C2C2CCN(Cc3ccccc3)CC2)cc1` (stereo not drawn) [CMLD010882], the EC50 in data set [1] (setting [3]) was 15.9 µM. In data set [2] (setting [4]), the 50% cytotoxic concentration (CC50) was found to be 20 µM.
`COc1cncc(N2C(=O)c3[nH]nc(CC(C)C)c3C2c2ccc(F)cc2)c1` (stereo not drawn) [CMLD010883]: the EC50 in data set [1] (setting [3]) was 31.6 µM. Moreover, in data set [2] (setting [4]), the CC50 was over 50 µM.
`CC(C)Cc1n[nH]c2c1C(c1ccc(F)cc1)N(c1ccc(OC(F)(F)F)cc1)C2=O` (stereo not drawn) [CMLD010885]: the 50% effective concentration (EC50) in data set [1] (setting [3]) is 3.2 µM. In data set [2] (setting [4]), the CC50 came to 7.9 µM.
With `COc1ccc(N2C(=O)c3[nH]nc(CC(C)C)c3C2c2cncc(OC)c2)cc1` (stereo not drawn) [CMLD010886], the EC50 in data set [1] (setting [3]) was found to be 10 µM. Also, the CC50 in data set [2] (setting [4]) came to 20 µM.
As to `COc1ccc(N2C(=O)c3[nH]nc(CC(C)C)c3C2c2ccncn2)cc1` (stereo not drawn) [CMLD010887], the EC50 in data set [1] (setting [3]) was over 50 µM. Further, in data set [2] (setting [4]), the CC50 is over 50 µM.
As to `COc1ccc(N2C(=O)c3[nH]nc(CC(C)C)c3C2c2ccc(Br)cc2)cc1` (stereo not drawn) [CMLD010889], in data set [1] (setting [3]), the 50% effective concentration (EC50) was found to be 6.3 µM. Besides, the CC50 in data set [2] (setting [4]) came to 15.9 µM.
For `COc1ccc(N2C(=O)c3[nH]nc(CC(C)C)c3C2c2cccc(F)c2)cc1` (stereo not drawn) [CMLD010890], in data set [1] (setting [3]), the concentration giving a half-maximal response (EC50) turned out to be 5 µM. For the same compound, the CC50 in data set [2] (setting [4]) came to 12.6 µM.
The like results for `COc1ccc(N2C(=O)c3[nH]nc(CC(C)C)c3C2c2cccc(Br)c2)cc1` (stereo not drawn) [CMLD010891] were, in that order, 7.9 µM and 25.1 µM.
As for `COc1ccc(N2C(=O)c3[nH]nc(CC(C)C)c3C2C2CCCCC2)cc1` (stereo not drawn) [CMLD010892], the concentration for a half-maximal effect (EC50) in data set [1] (setting [3]) is 7.9 µM. Besides, the CC50 in data set [2] (setting [4]) was 25.1 µM.
For `COc1ccc(N2C(=O)c3[nH]nc(CC(C)C)c3C2c2ccccc2Br)cc1` (stereo not drawn) [CMLD010894], in data set [1] (setting [3]), the EC50 came out at 0.5 µM. For the same compound, the CC50 in data set [2] (setting [4]) came to 25.1 µM.
The like results for `COc1cccc(N2C(=O)c3[nH]nc(CC(C)C)c3C2c2ccc(F)cc2)c1` (stereo not drawn) [CMLD010895] were, in that order, 12.6 µM and 31.6 µM.
Regarding `COc1cc(N2C(=O)c3[nH]nc(CC(C)C)c3C2c2ccc(F)cc2)cc(OC)c1OC` (stereo not drawn) [CMLD010896], the 50% effective concentration (EC50) in data set [1] (setting [3]) came out at 4 µM. Besides, the CC50 in data set [2] (setting [4]) worked out at 3.2 µM.
For `CC(C)Cc1n[nH]c2c1C(c1ccc(F)cc1)N(c1ccc(Br)cc1)C2=O` (stereo not drawn) [CMLD010897], the half-maximal effective concentration (EC50) in data set [1] (setting [3]) came to 1.3 µM. Moreover, the cytotoxic concentration (CC50) in data set [2] (setting [4]) came out at 15.9 µM.
Take `COc1ccc(N2C(=O)c3[nH]nc(CC(C)C)c3C2c2cccc(C(F)(F)F)c2)cn1` (stereo not drawn) [CMLD010898]: in data set [1] (setting [3]), the 50% effective concentration (EC50) worked out at 2 µM. Besides, in data set [2] (setting [4]), the cytotoxic concentration (CC50) amounted to 20 µM.
Turning to `CCc1ccc(N2C(=O)c3[nH]nc(CC(C)C)c3C2c2ccc(F)cc2)cc1` (stereo not drawn) [CMLD010899], the EC50 in data set [1] (setting [3]) came out at 4 µM. Moreover, in data set [2] (setting [4]), the 50% cytotoxic concentration (CC50) was found to be 20 µM.
Regarding `CCOc1ccc(N2C(=O)c3[nH]nc(CC(C)C)c3C2c2ccc(F)cc2)cc1` (stereo not drawn) [CMLD010900], the EC50 in data set [1] (setting [3]) is 1.6 µM. Further, the cytotoxic concentration (CC50) in data set [2] (setting [4]) stood at 20 µM.
As to `COc1ccc(N2C(=O)c3[nH]nc(CC(C)C)c3C2C2CCCCC2)cn1` (stereo not drawn) [CMLD010903], the 50% effective concentration (EC50) in data set [1] (setting [3]) was 20 µM. Moreover, the CC50 in data set [2] (setting [4]) came to 31.6 µM.
Take `CC(C)Cc1n[nH]c2c1C(c1cccc(C(F)(F)F)c1)N(c1ccc(-n3ccnc3)cc1)C2=O` (stereo not drawn) [CMLD010924]: the 50% effective concentration (EC50) in data set [1] (setting [5]) was at least 50.1 µM. The same compound gave a CC50 in data set [2] (host THP-1 cells) of 39.8 µM.
As to `CC(C)Cc1n[nH]c2c1C(c1cccc(C(F)(F)F)c1)N(c1ccc(N(C)C)cc1)C2=O` (stereo not drawn) [CMLD010925], the EC50 in data set [1] (setting [3]) came to 7.9 µM. The CC50 in data set [2] (setting [4]) came out at 20 µM.
The like results for `Cc1cc(F)ccc1C1c2c(CC(C)C)n[nH]c2C(=O)N1c1ccc(-n2ccnc2)cc1` (stereo not drawn) [CMLD010926] were, in that order, 1.3 µM and 25.1 µM.
For the compound `COc1ccc(N2C(=O)c3[nH]nc(CC(C)C)c3[C@@H]2c2ccc(F)cc2C)cc1` [CMLD010949], the EC50 in data set [1] (setting [3]) came out at 0.5 µM. Further, the 50% cytotoxic concentration (CC50) in data set [2] (setting [4]) is 39.8 µM.
As for `COc1ccc(N2C(=O)c3[nH]nc(CC(C)C)c3[C@H]2c2ccc(F)cc2C)cc1` [CMLD010950], the concentration for a half-maximal effect (EC50) in data set [1] (setting [3]) stood at 6.3 µM. For the same compound, in data set [2] (setting [4]), the CC50 was 31.6 µM.
As for `COc1ccc(N2C(=O)c3[nH]nc(CC(C)C)c3[C@@H]2c2ccccc2Br)cn1` [CMLD010976], in data set [1] (setting [3]), the EC50 was 1 µM. In data set [2] (setting [4]), the CC50 turned out to be 20 µM.
For `COc1ccc(N2C(=O)c3[nH]nc(CC(C)C)c3C2C2CCCC2)cc1` (stereo not drawn) [CMLD010978], in data set [1] (setting [3]), the EC50 is 12.6 µM. In addition, the cytotoxic concentration (CC50) in data set [2] (setting [4]) was found to be 20 µM.
Consider `COc1ccc(N2C(=O)c3[nH]nc(-c4ccc(CC(C)C)cc4)c3C2c2ccc(F)cc2)cc1` (stereo not drawn) [CMLD010979], for which the 50% effective concentration (EC50) in data set [1] (setting [3]) worked out at 4 µM. Moreover, the CC50 in data set [2] (setting [4]) was 7.9 µM.

The values are drawn from patent publication US20230381142A1, “ANTILEISHMANIAL COMPOUNDS, COMPOSITIONS AND USE THEREOF” (TRUSTEES OF BOSTON UNIVERSITY, priority 2022, published 2023).
